From patent US20240398757A1 (COCRYSTAL PHARMA, INC., priority 2022, published 2024)

molecular target: T1, SARS2 protease (Severe acute respiratory syndrome coronavirus 2, UniProt P0DTD1); test: SARS-CoV-2 protease inhibition assay (SARS2 FRET protease assay); assay type: biochemical; conditions: IC50 (μM), SARS2 protease 30 nM, peptide substrate 1.3 μM, 120 minutes at 37° C., compounds 20 μM to 0.075 nM
T1 construct: SARS2 protease was added to a final concentration of 30 nM

SMILES | IC50 [µM]
CCCC[C@H](NC(=O)OC(c1ccccc1)C(F)(F)c1cccc(Cl)c1)C(=O)N[C@@H](Cc1ccc[nH]c1=O)C(=O)C(=O)NC1CC1 (stereo partly drawn) [Compound A285, 2-(3-chlorophenyl)-2,2-difluoro-1-phenylethyl ((S)-1-(((S)-4-(cyclopropylamino)-3,4-dioxo-1-(2-oxo-1,2-dihydropyridin-3-yl)butan-2-yl)amino)-1-oxohexan-2-yl)carbamate] | 1.3
O=C[C@H](C[C@@H]1CCNC1=O)NC(=O)[C@H](Cc1cccc(Cl)c1)NC(=O)OC(c1ccccc1)C(F)(F)c1cccc(Cl)c1 (stereo partly shown) [Compound A286] | 0.0001
CCNC(=O)C(=O)[C@H](C[C@@H]1CCNC1=O)NC(=O)[C@H](Cc1cccc(Cl)c1)NC(=O)OC(c1ccccc1)C(F)(F)c1cccc(Cl)c1 (stereo partly shown) [Compound A287] | 1.06
CC(C)C[C@H](NC(=O)O[C@@H](c1ccccc1)C(F)(F)c1cccc(C2CC2)c1)C(=O)N[C@@H](C[C@@H]1CCNC1=O)C(=O)C(=O)NC1CC1 [Compound A288] | 0.26
CCCC[C@H](NC(=O)OC(c1ccccc1)C(F)(F)c1cccc(Cl)c1)C(=O)N[C@H](C=O)Cc1ccc[nH]c1=O (stereo partly drawn) [Compound A292, 2-(3-chlorophenyl)-2,2-difluoro-1-phenylethyl ((S)-1-oxo-1-(((S)-1-oxo-3-(2-oxo-1,2-dihydropyridin-3-yl)propan-2-yl)amino)hexan-2-yl)carbamate] | 0.159
CCOP(=O)(OCC)C(O)[C@H](C[C@@H]1CCNC1=O)NC(=O)[C@H](CC1CCCCC1)NC(=O)O[C@H](c1ccccc1)C(F)(F)c1cccc(Cl)c1 (stereo partly shown) [Compound A293] | 16.1
CCCC[C@H](NC(=O)OC(c1ccccc1)C(F)(F)c1cccc(Cl)c1)C(=O)N[C@@H](C[C@@H]1CCNC1=O)C(=O)C(=O)NCCNCC (stereo partly shown) [Compound A294] | 0.486
CCCC[C@H](NC(=O)O[C@@H](c1cccnc1)C(F)(F)c1cccc(Cl)c1)C(=O)N[C@@H](C[C@@H]1CCNC1=O)C(=O)C(=O)NC1CC1 [Compound A301] | 0.0362
CCCC[C@H](NC(=O)O[C@@H](c1ccncc1)C(F)(F)c1cccc(Cl)c1)C(=O)N[C@@H](C[C@@H]1CCNC1=O)C(=O)C(=O)NC1CC1 [Compound A303] | 0.055
CCCC[C@H](NC(=O)OC(c1ccn(C)n1)C(F)(F)c1cccc(Cl)c1)C(=O)N[C@H](C=O)C[C@@H]1CCNC1=O (stereo partly shown) [Compound A305] | 0.0004
CCCC[C@H](NC(=O)OC(c1ccccc1)C(F)(F)c1cccc(Cl)c1)C(=O)NC(CN1CCNC1=O)C(=O)C(=O)NC1CC1 (stereo partly shown) [Compound A306] | 4.41
CC(C)C[C@H](NC(=O)OC(c1ccccc1)C(F)(F)c1cccc(Cl)c1)C(=O)NC(CN1CCNC1=O)C(=O)C(=O)NC1CC1 (stereo partly shown) [Compound A307] | 4.44
CC[C@@H](C)C[C@H](NC(=O)O[C@H](c1ccccc1)C(F)(F)c1cccc(Cl)c1)C(=O)N[C@@H](C[C@@H]1CCNC1=O)C(=O)C(=O)NC1CC1 [Compound A311] | 0.181
CC[C@@H](C)C[C@H](NC(=O)O[C@@H](c1ccccc1)C(F)(F)c1cccc(Cl)c1)C(=O)N[C@@H](C[C@@H]1CCNC1=O)C(=O)C(=O)NC1CC1 [Compound A312] | 0.64
CCCC[C@H](NC(=O)OC(c1ccn(C)n1)C(F)(F)c1cccc(Cl)c1)C(=O)N[C@@H](C[C@@H]1CCNC1=O)C(=O)C(=O)NCC (stereo partly shown) [Compound A313] | 0.139
CC(C)C[C@H](NC(=O)OC(c1ccccc1)C(F)(F)c1cccc(C2CCC2)c1)C(=O)N[C@H](C=O)C[C@@H]1CCNC1=O (stereo partly shown) [Compound A314] | 0.001
CC(C)C[C@H](NC(=O)OC(c1ccccc1)C(F)(F)c1cccc(C2CCC2)c1)C(=O)N[C@@H](C[C@@H]1CCNC1=O)C(=O)C(=O)NC1CC1 (stereo partly shown) [Compound A315] | 0.051
CC(C)C[C@H](NC(=O)O[C@@H](c1ccccc1)C(F)(F)c1cccc(Cl)c1)C(=O)N[C@@H](C[C@@H]1CCNC1=O)C(=O)C(=O)NC1CC1 [Compound A317] | 0.0004
CCCC[C@H](NC(=O)OC(c1cnn(C)c1)C(F)(F)c1cccc(Cl)c1)C(=O)N[C@@H](C[C@@H]1CCNC1=O)C(=O)C(=O)NCC (stereo partly shown) [Compound A319] | 0.001
CCNC(=O)C(=O)[C@H](C[C@@H]1CCNC1=O)NC(=O)[C@@H](CC1(CC)CCC1)NC(=O)O[C@@H](c1ccccc1)C(F)(F)c1cccc(Cl)c1 [Compound A320] | 0.0001
CCNC(=O)C(=O)[C@H](C[C@@H]1CCNC1=O)NC(=O)[C@H](CC1(CC)CCC1)NC(=O)O[C@H](c1ccccc1)C(F)(F)c1cccc(Cl)c1 [Compound A322] | 1.72
CCNC(=O)C(=O)[C@H](C[C@@H]1CCNC1=O)NC(=O)[C@H](CC1(CC)CCC1)NC(=O)O[C@@H](c1ccccc1)C(F)(F)c1cccc(Cl)c1 [Compound A323] | 3.84
CCNC(=O)C(=O)[C@H](C[C@@H]1CCNC1=O)NC(=O)[C@@H](CC1(C)CCC1)NC(=O)O[C@@H](c1ccccc1)C(F)(F)c1cccc(Cl)c1 [Compound A324] | 0.0003
CCNC(=O)C(=O)[C@H](C[C@@H]1CCNC1=O)NC(=O)[C@H](CC1(C)CCC1)NC(=O)O[C@H](c1ccccc1)C(F)(F)c1cccc(Cl)c1 [Compound A326] | 0.367
CCNC(=O)C(=O)[C@H](C[C@@H]1CCNC1=O)NC(=O)[C@H](CC1(C)CCC1)NC(=O)O[C@@H](c1ccccc1)C(F)(F)c1cccc(Cl)c1 [Compound A327] | 5.33
